# Measurements taken from patent US7282213B2, “Method for applying a drug coating to a medical device” (Medtronic, Inc., priority 2002, dated 2007).
# Test: HPLC check for drug degradation after thermal processing of the electrode coating
# Format: physicochemical
# Conditions: coating heated to solid-state phase change (hot air tool), dissolved from electrode in solvent, compared to control solution
# Excerpt: Prior attempts at heating a drug to form a more durable drug coating on an electrode surface have been less successful because the drug may degrade during the heating process due to overheating. One advantage of the present invention is that the controlled heating process, using a focused, direct heat source, achieves a change in solid state and micro-crack healing forming a conformable crystalline coating with a decrease in the defect density, without degrading the drug. […] Electrodes coated with beclomethasone dipropionate, according to the thermal processing methods described above and shown in FIG. 3, have been soaked in a solvent to dissolve the drug coating from the electrode surface. The resulting test solution was analyzed using HPLC and compared to HPLC results from a control sample of beclomethasone dipropionate in solution. Chromatograms of the test solution samples were identical to those of the control samples with regards to retention time of the major peak.
smiles,measurement,value
CCC(=O)OCC(=O)[C@@]1(OC(=O)CC)[C@@H](C)C[C@H]2[C@@H]3CCC4=CC(=O)C=C[C@]4(C)[C@@]3(Cl)[C@@H](O)C[C@@]21C [beclomethasone dipropionate anhydrous],degradation products by HPLC after thermal processing,no peaks associated with degradation products were observed
